Experimental data as given in the supplement of paper PMC5412046.
Counter-ions that a name gives are not always drawn.

System: SB.mhdgc-1
Assay: viability at highest tested concentration (MAXR) relative to DMSO; higher = less cytotoxic
Conditions: SB.mhdgc-1 (hereditary c.1380delA CDH1 gastric cancer)
In short: (§1)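 Viability, normalised to DMSO, is listed either at the highest concentration or as trapezoidal area under the curve. It was measured in patient-derived gastric cancer cells, hereditary or sporadic, exposed for 48 h to 11 threefold-diluted compound concentrations and then assayed with CellTiter-Glo luminescence.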

Row | Compound | viability
1 | O=C(NC1CCOCC1)c1ccc(-c2cc(-c3c[nH]nc3-c3ccccn3)ccn2)cc1 (top concentration 46.0829 µM) | 116%
2 | OC1=CC2=C(C(=C1)O)C(=O)\C=C(/O2)C3=CC=CC=C3 [5,7-Dihydroxyflavone] (top concentration 46.0829 µM) | 80.3%
3 | CC(=O)[C@H]1CC[C@H]2[C@@H]3C/C=C4/C[C@@H](O)CC[C@]4(C)[C@H]3CC[C@]12C [Pregnenolone] (top concentration 46.0829 µM) | 82.7%
4 | C[S+](=O)([O-])CCNCc1ccc(-c2ccc3ncnc(Nc4ccc(OCc5cccc(F)c5)c(Cl)c4)c3c2)o1 [Lapatinib] (top concentration 46.0829 µM) | 3.18%
5 | CC(C)(CO)[C@@H](O)C(=O)NCCC(=O)O [Pantothenic acid] (top concentration 46.0829 µM) | 128%
6 | CN(C)CCN(C)CCc1ccc(Cl)c(Cl)c1 [BD-1047] (top concentration 46.0829 µM) | 81.3%
7 | C=CC(=O)Nc1cccc(Oc2nc(Nc3ccc(N4CCN(C)CC4)cc3OC)ncc2Cl)c1 [WZ-4002] (top concentration 46.0829 µM) | 2.18%
8 | COc1cc(Cl)cn2c(-c3cccc(NC4CNC4)n3)cnc12 (top concentration 46.0829 µM) | 40.6%
9 | COC1CCC(C(=O)c2ccc3nc4c(cc3c2)CCCO4)CC1 (configuration not stated) (top concentration 46.0829 µM) | 4.89%
10 | COC1=C(OCCCN2CCOCC2)C=C3N=CC=C(OC4=CC=C(C=C4F)\C5=C\N=C(\NC6=CC=C(F)C=C6)N(C)C5=O)C3=C1 [AMG-51] (top concentration 46.0829 µM) | 1.34%
11 | CN1\N=N/C2=C(N=C[N]2C1=O)C(N)=O [Temozolomide] (top concentration 46.0829 µM) | 99.8%
12 | Cl.Cl.Clc1ccc(Nc2nnc(Cc3ccncc3)c3ccccc23)cc1 [Vatalanib] (top concentration 46.0829 µM) | 32.5%
13 | Cc1cc(NC(=O)Nc2ccc(N(C)C)cc2)c2cc(F)cc(F)c2n1 (top concentration 46.0829 µM) | 70.1%
14 | NC(=O)c1nnn(Cc2cc(Cl)c(C(=O)c3ccc(Cl)cc3)c(Cl)c2)c1N [Carboxyamidotriazole] (top concentration 46.0829 µM) | 46.1%
15 | C[C@@H]\1CC(=O)N\N=C1C2=CC=C(NN=C(C#N)C#N)C=C2 [Levosimendan] (top concentration 46.0829 µM) | 3%
16 | O=C(O)c1nn(Cc2ccc(Cl)cc2Cl)c2ccccc12 [Lonidamine] (top concentration 46.0829 µM) | 87.9%
17 | CCOC(=O)C/1=C(O)/C(=O)N(CC2=CC=CC=C2)C1 [EBPC] (top concentration 46.0829 µM) | 93.3%
18 | COc1ccc(-c2ccc3c(N4CCOCC4)nc(N4C[C@@H](C)O[C@@H](C)C4)nc3n2)cc1CO (top concentration 46.0829 µM) | 43.4%

Row | Compound | viability
19 | COc1cc([C@@H]2c3cc4c(cc3[C@H](O)[C@H]3COC(=O)[C@@H]23)OCO4)cc(OC)c1OC [Picropodophyllin] (top concentration 46.0829 µM) | 45.9%
20 | COC1=CC=CC2=C1C(=NC(=N2)C3=CC=CS3)NN4C(=O)\C=C(C)/C4=O (top concentration 46.0829 µM) | 2.71%
21 | O=C(O)c1cc(O)c2c(c1)C(=O)c1cccc(O)c1C2=O [Rhein] (top concentration 92.1659 µM) | 53.8%
22 | C[C@@H]1C[C@@H]([C@H](O)CC2CC(=O)NC(=O)C2)C(=O)[C@@H](C)C1 [cycloheximide] (top concentration 46.0829 µM) | 51.1%
23 | COc1ccc(C(=O)CC(=O)c2ccc(C(C)(C)C)cc2)cc1 [Avobenzone] (top concentration 46.0829 µM) | 43.2%
24 | CC1(C)[C@H](C(=O)O)N2C(=O)C[C@H]2[S+]1(=O)[O-] [Sulbactam] (top concentration 46.0829 µM) | 80.7%
25 | CC[C@@H](C)[C@H](NC(=O)[C@H](CC1CCCCC1)NC(=O)c1ccno1)C(=O)N1CCC2(CCc3ccccc32)CC1 [GB 83] (top concentration 46.0829 µM) | 40.9%
26 | CC(C)CN(C[C@@H](O)[C@H](Cc1ccccc1)NC(=O)O[C@H]1CCOC1)[S+](=O)([O-])c1ccc(N)cc1 [Amprenavir] (top concentration 46.0829 µM) | 20.5%
27 | Cc1ccc([C@@H]2O[C@H](CO)[C@@H](O)[C@H](O)[C@H]2O)cc1Cc1ccc(-c2ccc(F)cc2)s1 [Canagliflozin] (top concentration 46.0829 µM) | 87.6%
28 | Cc1ccc2c(c1)c1c(n2CCc2ccc(C)nc2)CCN(C)C1 [Latrepirdine hydrochloride] (top concentration 46.0829 µM) | 57.1%
29 | C=CC(=O)Nc1cccc(Sc2nc(Nc3ccc(N4CCN(C)CC4)cc3)ncc2Cl)c1 [WZ-8040] (top concentration 46.0829 µM) | 1.92%
30 | C[C@H]1CCC/C=C/C2C[C@H](O)C[C@H]2[C@H](O)/C=C/C(=O)O1 (some centres not stated) [Cyanein] (top concentration 46.0829 µM) | 5.24%
31 | NC(=O)c1ccc2[nH]ccc2c1 [SD-169] (top concentration 46.0829 µM) | 96.9%
32 | C[C@]12CC[C@H]3[C@@H](C\C=C/4C[C@@H](O)CC[C@]34C)[C@@H]1CCC2=O [Dehydroepiandrosterone] (top concentration 46.0829 µM) | 32%
33 | COc1cc2ncn(-c3cc(OCc4ccccc4[S+](C)(=O)[O-])c(C#N)s3)c2cc1OC [IKK-3 Inhibitor IX] (top concentration 46.0829 µM) | 52.9%
34 | NC/1=N/C(=O)N(/C=C1)[C@H]2CC[C@@H](CO)O2 [Zalcitabine] (top concentration 46.0829 µM) | 61.1%
35 | CC1(C)C(=O)N(CCN2CCC(C(=O)c3ccc(F)cc3)CC2)c2ccccc21 (top concentration 46.0829 µM) | 4.82%
36 | CC1(C)Cc2c(sc(NC(=S)NC(=O)c3ccccc3)c2C(=O)O)CO1 (top concentration 46.0829 µM) | 23.8%

System: SB.msgc-1
Assay: as above
Conditions: SB.msgc-1 (sporadic gastric cancer)
In short: as §1

Row | Compound | viability
37 | O=C(NC1CCOCC1)c1ccc(-c2cc(-c3c[nH]nc3-c3ccccn3)ccn2)cc1 (top concentration 46.0829 µM) | 90.7%
38 | OC1=CC2=C(C(=C1)O)C(=O)\C=C(/O2)C3=CC=CC=C3 [5,7-Dihydroxyflavone] (top concentration 46.0829 µM) | 96.1%
39 | CC(=O)[C@H]1CC[C@H]2[C@@H]3C/C=C4/C[C@@H](O)CC[C@]4(C)[C@H]3CC[C@]12C [Pregnenolone] (top concentration 46.0829 µM) | 80.8%
40 | C[S+](=O)([O-])CCNCc1ccc(-c2ccc3ncnc(Nc4ccc(OCc5cccc(F)c5)c(Cl)c4)c3c2)o1 [Lapatinib] (top concentration 46.0829 µM) | 13.3%
41 | CC(C)(CO)[C@@H](O)C(=O)NCCC(=O)O [Pantothenic acid] (top concentration 46.0829 µM) | 106%
42 | CN(C)CCN(C)CCc1ccc(Cl)c(Cl)c1 [BD-1047] (top concentration 46.0829 µM) | 89.9%
43 | C=CC(=O)Nc1cccc(Oc2nc(Nc3ccc(N4CCN(C)CC4)cc3OC)ncc2Cl)c1 [WZ-4002] (top concentration 46.0829 µM) | 9.94%
44 | COc1cc(Cl)cn2c(-c3cccc(NC4CNC4)n3)cnc12 (top concentration 46.0829 µM) | 51.3%
45 | COC1CCC(C(=O)c2ccc3nc4c(cc3c2)CCCO4)CC1 (configuration not stated) (top concentration 46.0829 µM) | 17.9%
46 | COC1=C(OCCCN2CCOCC2)C=C3N=CC=C(OC4=CC=C(C=C4F)\C5=C\N=C(\NC6=CC=C(F)C=C6)N(C)C5=O)C3=C1 [AMG-51] (top concentration 46.0829 µM) | 1.73%
47 | CN1\N=N/C2=C(N=C[N]2C1=O)C(N)=O [Temozolomide] (top concentration 46.0829 µM) | 106%
48 | Cl.Cl.Clc1ccc(Nc2nnc(Cc3ccncc3)c3ccccc23)cc1 [Vatalanib] (top concentration 46.0829 µM) | 53.2%
49 | Cc1cc(NC(=O)Nc2ccc(N(C)C)cc2)c2cc(F)cc(F)c2n1 (top concentration 46.0829 µM) | 74.6%
50 | NC(=O)c1nnn(Cc2cc(Cl)c(C(=O)c3ccc(Cl)cc3)c(Cl)c2)c1N [Carboxyamidotriazole] (top concentration 46.0829 µM) | 27.3%
51 | C[C@@H]\1CC(=O)N\N=C1C2=CC=C(NN=C(C#N)C#N)C=C2 [Levosimendan] (top concentration 46.0829 µM) | 1.23%
52 | O=C(O)c1nn(Cc2ccc(Cl)cc2Cl)c2ccccc12 [Lonidamine] (top concentration 46.0829 µM) | 82.3%
53 | CCOC(=O)C/1=C(O)/C(=O)N(CC2=CC=CC=C2)C1 [EBPC] (top concentration 46.0829 µM) | 104%
54 | COc1ccc(-c2ccc3c(N4CCOCC4)nc(N4C[C@@H](C)O[C@@H](C)C4)nc3n2)cc1CO (top concentration 46.0829 µM) | 75.5%

Row | Compound | viability
55 | COc1cc([C@@H]2c3cc4c(cc3[C@H](O)[C@H]3COC(=O)[C@@H]23)OCO4)cc(OC)c1OC [Picropodophyllin] (top concentration 46.0829 µM) | 40.5%
56 | COC1=CC=CC2=C1C(=NC(=N2)C3=CC=CS3)NN4C(=O)\C=C(C)/C4=O (top concentration 46.0829 µM) | 2.95%
57 | O=C(O)c1cc(O)c2c(c1)C(=O)c1cccc(O)c1C2=O [Rhein] (top concentration 92.1659 µM) | 43.1%
58 | C[C@@H]1C[C@@H]([C@H](O)CC2CC(=O)NC(=O)C2)C(=O)[C@@H](C)C1 [cycloheximide] (top concentration 46.0829 µM) | 32.6%
59 | COc1ccc(C(=O)CC(=O)c2ccc(C(C)(C)C)cc2)cc1 [Avobenzone] (top concentration 46.0829 µM) | 22.9%
60 | CC1(C)[C@H](C(=O)O)N2C(=O)C[C@H]2[S+]1(=O)[O-] [Sulbactam] (top concentration 46.0829 µM) | 91.3%
61 | CC[C@@H](C)[C@H](NC(=O)[C@H](CC1CCCCC1)NC(=O)c1ccno1)C(=O)N1CCC2(CCc3ccccc32)CC1 [GB 83] (top concentration 46.0829 µM) | 33.4%
62 | CC(C)CN(C[C@@H](O)[C@H](Cc1ccccc1)NC(=O)O[C@H]1CCOC1)[S+](=O)([O-])c1ccc(N)cc1 [Amprenavir] (top concentration 46.0829 µM) | 42.1%
63 | Cc1ccc([C@@H]2O[C@H](CO)[C@@H](O)[C@H](O)[C@H]2O)cc1Cc1ccc(-c2ccc(F)cc2)s1 [Canagliflozin] (top concentration 46.0829 µM) | 84.1%
64 | Cc1ccc2c(c1)c1c(n2CCc2ccc(C)nc2)CCN(C)C1 [Latrepirdine hydrochloride] (top concentration 46.0829 µM) | 79.8%
65 | C=CC(=O)Nc1cccc(Sc2nc(Nc3ccc(N4CCN(C)CC4)cc3)ncc2Cl)c1 [WZ-8040] (top concentration 46.0829 µM) | 7.02%
66 | C[C@H]1CCC/C=C/C2C[C@H](O)C[C@H]2[C@H](O)/C=C/C(=O)O1 (some centres not stated) [Cyanein] (top concentration 46.0829 µM) | 32.8%
67 | NC(=O)c1ccc2[nH]ccc2c1 [SD-169] (top concentration 46.0829 µM) | 117%
68 | C[C@]12CC[C@H]3[C@@H](C\C=C/4C[C@@H](O)CC[C@]34C)[C@@H]1CCC2=O [Dehydroepiandrosterone] (top concentration 46.0829 µM) | 38.2%
69 | COc1cc2ncn(-c3cc(OCc4ccccc4[S+](C)(=O)[O-])c(C#N)s3)c2cc1OC [IKK-3 Inhibitor IX] (top concentration 46.0829 µM) | 93.1%
70 | NC/1=N/C(=O)N(/C=C1)[C@H]2CC[C@@H](CO)O2 [Zalcitabine] (top concentration 46.0829 µM) | 49.5%
71 | CC1(C)C(=O)N(CCN2CCC(C(=O)c3ccc(F)cc3)CC2)c2ccccc21 (top concentration 46.0829 µM) | 62.9%
72 | CC1(C)Cc2c(sc(NC(=S)NC(=O)c3ccccc3)c2C(=O)O)CO1 (top concentration 46.0829 µM) | 47.7%
